Several values for one entry are separate records, joined by “and”; a condition that tells them apart may be missing. Equal entries are not always repeated.
Legend:
[1] = system: methicillin resistant S. aureus (MRSA); test: In vitro bacterial adherence and colonization of coated implants, MRSA; type: cell-based; details: 24 hours incubation; for reduction of MRSA adherent to PTFE in vitro: coated PTFE; for reduction of MRSA adherent to PTFE in vitro / reduction of MRSA adherent to titanium screws in vitro: vs vehicle-coated controls; for reduction of MRSA adherent to silk suture in vitro: coated silk suture, vs vehicle (100% ethanol)-coated controls; for reduction of MRSA adherent to titanium screws in vitro: coated titanium screws
Procedure: Small pieces of PTFE (5 mm×5 mm), silk suture (2 cm), and titanium screws antibiotic-coated and vehicle (100% ethanol)-coated, were prepared for analysis as in Example 1.2. Bacteria was prepared as in 2.3 and 1000 colony forming units (cfus) in 300 μL was placed in the wells of 96-well plates. The antibiotic-coated and vehicle-coated pieces were then immersed and incubated for 24 hours at 37° C., 95% humidity (n=15 per group). Pieces were then placed in 10 mL sterile PBS and bath sonicated for 10 minutes to release adherent bacteria. Bacteria were quantified by the plate dilution method.

[2] = system: P. aeruginosa (strain 762); test: In vitro bacterial adherence and colonization of coated implants, P. aeruginosa; type: cell-based; details: for reduction of P. aeruginosa adherent to PTFE in vitro / reduction of P. aeruginosa adherent to silk suture in vitro / reduction of P. aeruginosa adherent to titanium screws in vitro: 24 hours incubation, vs vehicle-coated controls; for reduction of P. aeruginosa adherent to silk suture in vitro: coated silk suture
Procedure: Bacteria was prepared as in 2.3 and 1000 colony forming units (cfus) in 300 μL was placed in the wells of 96-well plates. […] Pieces were then placed in 10 mL sterile PBS and bath sonicated for 10 minutes to release adherent bacteria. Bacteria were quantified by the plate dilution method.

[3] = physchem; details: 65 °C, organic solvent or mixture, thermodynamic from solid
Procedure: The process involved heating the ethanol to 65° C. and slowly adding the solid solute under bath sonication and manual agitation until the resulting solution was transparent. Dip coating was then carried out at room temperature immediately after removing the stock solutions from the heated water bath.
The reported solubility in the literature of the above antibiotics in ethanol are incompletely studied.

[4] = cited from earlier work; for reported solubility in ethanol/alcohol (in words): literature
[5] = system: methicillin resistant S. aureus (MRSA); test: Subcutaneous implant and infection of mice, MRSA colonization of implant; details: CF-1 mice, 2.5 million cfu, 3 days post infection; for reduction of MRSA colonization of PTFE in vivo: subcutaneous coated PTFE; for reduction of MRSA colonization of silk suture in vivo: subcutaneous coated silk suture; for reduction of MRSA colonization of titanium screws in vivo: subcutaneous coated titanium screws
From the text: (§1) Intact 5 cm sections of PTFE graft, full 75 cm length of silk suture, and individual titanium screws were dip-coated into each antibiotic solution and immediately withdrawn at a rate of ˜200 mm/'s. Thin films of antibiotic were subsequently formed as the ethanol evaporated.
(§2) After the PTFE, silk suture, and titanium are withdrawn from the antibiotic stock solution, they were allowed to further dry overnight at ambient conditions at room temperature. Vehicle (100% ethanol)-coated pieces were prepared in an identical manner, substituting absolute ethanol for the antibiotic stock solutions. PTFE implants were then cut to 5 mm×5 mm pieces, and silk suture was cut to 2 cm length for use in vitro and in vivo. Titanium screws were not further manipulated prior to use in vitro and in vivo.
(§3) MRSA was obtained from the clinical microbiology lab of Shriner's Hospital for Children (Cincinnati, OH). […] P. aeruginosa was grown from frozen glycerol stock overnight on TSB agar plates. MRSA was grown overnight from frozen glycerol stock on TSB agar plates with 5% sheep's blood. […] Bacteria were then washed twice by centrifugation at 3000×g for 10 min and resuspension in 0.9% NaCl. The optical density of the suspended bacteria was determined at 550 nm light and final inoculating concentration calculated from standard curves specific to each strain. Bacteria remained in 0.9% NaCl for in viva testing but were placed back into TSB for in vitro testing.
(§4) CF-1 mice were anesthetized with 120 mg/kg ketamine/16 mg/kg xylazine injected intraperitoneally and their backs shaved with electric clippers. A 2 cm incision was made in the back and implants (5 mm×5 mm PTFE, 2 cm silk suture, or titanium screws) were placed subcutaneously (n=9 per group).
(§5) Mice were sacrificed 3 days post infection. The implant capsule was entered with sterile instruments and the implant was removed and placed in 10 mL of sterile PBS. […] The implants and tissue were placed in a bath sonicator for 10 min to release adherent bacteria. Bacteria were then quantified by the plate dilution method. The most concentrated solution plated for each sample was a 1:100 dilution.

[6] = system: P. aeruginosa (strain 762); test: Subcutaneous implant and infection of mice, P. aeruginosa colonization of implant; details: CF-1 mice, 2 million cfu, 3 days post infection; for reduction of P. aeruginosa colonization of PTFE in vivo: subcutaneous coated PTFE; for reduction of P. aeruginosa colonization of silk suture in vivo: subcutaneous coated silk suture; for reduction of P. aeruginosa colonization of titanium screws in vivo: subcutaneous coated titanium screws
From the text: as §1, §2, §3, §4, §5

Row | SMILES | reduction of MRSA adherent to PTFE in vitro [1] | reduction of MRSA adherent to silk suture in vitro [1] [log] | reduction of MRSA adherent to titanium screws in vitro [1] | reduction of P. aeruginosa adherent to PTFE in vitro ([2]; coated PTFE) [log] | reduction of P. aeruginosa adherent to silk suture in vitro [2] [log] | reduction of P. aeruginosa adherent to titanium screws in vitro ([2]; coated titanium screws) [log] | solubility [3] | reported solubility in ethanol/alcohol (in words) [4] | reduction of MRSA colonization of PTFE in vivo [5] | reduction of MRSA colonization of silk suture in vivo [5] | reduction of MRSA colonization of titanium screws in vivo [5] | reduction of P. aeruginosa colonization of PTFE in vivo [6] | reduction of P. aeruginosa colonization of silk suture in vivo [6] | reduction of P. aeruginosa colonization of titanium screws in vivo [6] | also measured
1 | CC[C@H]1OC(=O)[C@H](C)[C@@H](O[C@H]2C[C@@](C)(OC)[C@@H](O)[C@H](C)O2)[C@H](C)[C@@H](O[C@@H]2O[C@H](C)C[C@H](N(C)C)[C@H]2O)[C@](C)(O)C[C@@H](C)C(=O)[C@H](C)[C@@H](O)[C@]1(C)O [Erythromycin] | 5.7 log and 4.5 log | 5.2 | 5.2 log and 5.3 log | 5.8 | 1.6 | 5.1 | 166000 µg/mL and 227000 µM | freely soluble | 3.8 log and 3.2 log | 5.1 log | 2.2 log and 2.5 log | 4.4 log and 3.3 log | 0.6 log and 0.4 log | 0.5 log and 0.4 log | PA adherence to PTFE (in words) ([2]; coated PTFE, in vitro, p<0.05): significantly reduced; PA adherence to titanium screws (in words) ([2]; coated titanium screws, in vitro, p<0.05): significantly reduced; ethanol solubility reported by Sigma ([4]; ethanol, vendor value): 50 mg/mL
2 | C[C@H]1COc2c(N3CCN(C)CC3)c(F)cc3c(=O)c(C(=O)O)cn1c23 [Levofloxacin] | 3.9 log | 5.2 | 5.3 log | 6.2 | 6.0 | 6.4 |  |  | 4.5 log and 3.7 log | 5.1 log and 4.0 log | 3.3 log and 3.0 log | 4.4 log and 3.7 log | 3.9 log and 4.3 log | 4.0 log and 3.3 log | reduction of MRSA adherent to PTFE in vitro ([1]; listed as levofloxacin): 5.7 log; reduction of MRSA adherent to titanium screws in vitro ([1]; listed as levofloxacin): 5.2 log; reduction of P. aeruginosa adherent to PTFE in vitro ([2]; coated PTFE, listed as levofloxacin): 6.1 log
3 | C[C@H]1c2cccc(O)c2C(=O)C2=C(O)[C@]3(O)C(=O)C(C(N)=O)=C(O)[C@@H](N(C)C)[C@@H]3[C@@H](O)[C@@H]21 [Doxycycline, Doxycycline Hyclate] | 5.7 log | 5.2 | 5.3 log | 5.5 | 4.4 | 6.4 | 41000 µg/mL and 80000 µM | sparingly soluble | 4.6 log and 4.7 log | 3.2 log and 2.1 log | 3.1 log and 3.0 log | 4.4 log and 2.7 log | 1.2 log and 1.1 log | 3.7 log and 2.8 log | reduction of MRSA adherent to titanium screws in vitro ([1]; listed as doxycycline): 5.2 log; reduction of P. aeruginosa adherent to PTFE in vitro ([2]; coated PTFE, listed as doxycycline): 6.1 log; reduction of P. aeruginosa adherent to silk suture in vitro ([2]; listed as doxycycline): 6.0 log
4 | O=C(N[C@H](CO)[C@H](O)c1ccc([N+](=O)[O-])cc1)C(Cl)Cl [Chloramphenicol] | 5.7 log | 5.2 | 5.3 log |  |  |  |  |  | 3.1 log and 2.3 log | 1.2 log and 1.1 log | 2.2 log and 2.3 log |  |  |  | reduction of MRSA adherent to titanium screws in vitro ([1]; listed as chloramphenicol): 5.2 log

— patent US12440610B2, “Coated medical devices and methods of inhibiting implant-associated infections” (UNIVERSITY OF CINCINNATI, priority 2017, dated 2025)
